Reference: ChEMBL document CHEMBL5518224, “Rational Design of PARP1/c-Met Dual Inhibitors for Overcoming PARP1 Inhibitor Resistance Induced by c-Met Overexpression” (J Med Chem, 2024)
pIC50: −log10 of the molar value. Each block holds one compound with its values, some of them ahead of it. The source made the active and inactive calls. The calls are words filed in the database; no cut-off is given here.

Legend:
MDA-MB-231 [1] = assay: Antiproliferative activity against human MDA-MB-231 cells harboring wild type BRCA and c-Met amplification assessed as inhibition of cell growth incubated for 7 days by MTT assay; format: functional, cell-based; settings: MDA-MB-231, 168 h
[2] = target: T1, Poly [ADP-ribose] polymerase 1 (Homo sapiens, UniProt P09874); assay: Inhibition of PARP1 (unknown origin) using histone as substrate incubated for 45 mins by absorbance based analysis
T1 sequence (P09874 whole entry): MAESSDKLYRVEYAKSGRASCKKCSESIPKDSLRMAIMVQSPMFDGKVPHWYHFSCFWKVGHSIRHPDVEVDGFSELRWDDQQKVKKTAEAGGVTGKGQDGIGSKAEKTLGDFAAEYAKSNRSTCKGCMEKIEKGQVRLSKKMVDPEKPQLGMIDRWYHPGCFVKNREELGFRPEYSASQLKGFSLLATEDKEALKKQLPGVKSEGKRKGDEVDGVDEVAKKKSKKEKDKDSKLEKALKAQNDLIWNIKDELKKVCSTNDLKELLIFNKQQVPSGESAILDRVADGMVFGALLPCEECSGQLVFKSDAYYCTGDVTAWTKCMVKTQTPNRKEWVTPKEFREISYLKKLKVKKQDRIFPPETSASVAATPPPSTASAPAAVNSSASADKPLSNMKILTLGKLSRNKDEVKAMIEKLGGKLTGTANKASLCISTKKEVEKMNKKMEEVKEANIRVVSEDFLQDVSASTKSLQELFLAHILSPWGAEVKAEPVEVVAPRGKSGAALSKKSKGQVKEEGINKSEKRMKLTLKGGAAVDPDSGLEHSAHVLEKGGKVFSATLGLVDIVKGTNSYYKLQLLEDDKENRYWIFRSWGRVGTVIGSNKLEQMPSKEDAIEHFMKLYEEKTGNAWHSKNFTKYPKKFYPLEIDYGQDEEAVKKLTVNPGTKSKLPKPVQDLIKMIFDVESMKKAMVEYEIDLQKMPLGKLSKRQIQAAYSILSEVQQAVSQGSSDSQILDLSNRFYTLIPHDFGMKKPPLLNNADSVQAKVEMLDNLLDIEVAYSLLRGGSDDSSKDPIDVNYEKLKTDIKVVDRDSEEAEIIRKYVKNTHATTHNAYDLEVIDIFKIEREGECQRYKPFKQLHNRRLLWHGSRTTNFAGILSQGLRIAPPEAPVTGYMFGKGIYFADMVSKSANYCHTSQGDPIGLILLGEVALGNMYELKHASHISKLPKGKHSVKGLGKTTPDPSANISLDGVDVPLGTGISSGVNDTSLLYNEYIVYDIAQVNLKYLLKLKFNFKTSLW

[3] = target: T2, Hepatocyte growth factor receptor (Homo sapiens, UniProt P08581); assay: Inhibition of c-Met (unknown origin) by HTRF method
T2 sequence (P08581 whole entry): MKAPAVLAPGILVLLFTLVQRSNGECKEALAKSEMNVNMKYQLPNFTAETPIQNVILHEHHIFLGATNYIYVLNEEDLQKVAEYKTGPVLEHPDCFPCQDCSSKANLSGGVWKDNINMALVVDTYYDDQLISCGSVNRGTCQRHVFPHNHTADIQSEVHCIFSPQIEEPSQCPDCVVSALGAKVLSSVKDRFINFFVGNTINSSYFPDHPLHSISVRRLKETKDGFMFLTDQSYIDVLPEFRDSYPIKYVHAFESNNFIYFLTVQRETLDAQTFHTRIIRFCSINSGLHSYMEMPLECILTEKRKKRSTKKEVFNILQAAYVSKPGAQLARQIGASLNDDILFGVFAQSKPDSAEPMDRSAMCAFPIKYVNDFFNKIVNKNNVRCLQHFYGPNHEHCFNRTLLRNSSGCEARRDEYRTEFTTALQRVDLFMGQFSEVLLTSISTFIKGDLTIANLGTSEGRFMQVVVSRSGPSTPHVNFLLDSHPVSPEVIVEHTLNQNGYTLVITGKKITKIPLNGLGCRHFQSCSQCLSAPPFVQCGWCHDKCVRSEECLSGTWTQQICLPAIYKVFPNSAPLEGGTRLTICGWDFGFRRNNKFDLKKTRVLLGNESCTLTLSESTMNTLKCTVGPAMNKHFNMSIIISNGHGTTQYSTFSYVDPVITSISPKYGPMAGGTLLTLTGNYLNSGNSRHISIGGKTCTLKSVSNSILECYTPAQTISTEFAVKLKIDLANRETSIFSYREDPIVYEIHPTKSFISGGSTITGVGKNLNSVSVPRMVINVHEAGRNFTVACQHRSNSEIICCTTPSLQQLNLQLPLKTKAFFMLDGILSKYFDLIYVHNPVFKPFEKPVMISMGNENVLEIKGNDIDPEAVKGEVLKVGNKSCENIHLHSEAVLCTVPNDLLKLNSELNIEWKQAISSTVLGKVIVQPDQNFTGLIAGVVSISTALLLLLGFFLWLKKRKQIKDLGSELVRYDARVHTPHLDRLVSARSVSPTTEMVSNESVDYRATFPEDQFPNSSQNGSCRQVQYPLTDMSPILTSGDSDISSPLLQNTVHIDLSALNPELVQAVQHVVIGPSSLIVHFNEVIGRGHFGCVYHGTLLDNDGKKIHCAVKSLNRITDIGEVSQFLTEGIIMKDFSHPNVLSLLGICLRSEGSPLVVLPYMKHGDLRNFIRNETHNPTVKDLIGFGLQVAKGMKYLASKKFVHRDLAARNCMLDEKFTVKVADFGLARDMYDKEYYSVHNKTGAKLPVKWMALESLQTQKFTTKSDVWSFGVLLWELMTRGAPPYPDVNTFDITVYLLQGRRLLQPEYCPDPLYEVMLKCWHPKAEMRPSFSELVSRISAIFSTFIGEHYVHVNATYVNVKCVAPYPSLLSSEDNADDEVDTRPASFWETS

[4] = target: T2, Hepatocyte growth factor receptor; assay: Inhibition of c-Met (unknown origin) at 100 nM by HTRF method relative to control
MDA-MB-231 [5] = assay: Antitumor activity against human MDA-MB-231 cells xenografted in female Balb/c nude mouse assessed as induction of apoptosis by measuring upregulation of cleaved caspase-3 expression in tumor at 50 mg/kg/day, ip qd administered for 28 days by immunohistochemistry analysis; format: functional, organism-based; settings: time 28.0 day
MDA-MB-231 [6] = assay: Effect on homologous recombination in human MDA-MB-231 cells assessed as reduction in BRCA1 protein level by measuring disruption of BRCA1-BRCA2-Rad51 complex formation at 0.5 uM incubated for 72 hrs by Western blot analysis; format: functional, cell-based
MDA-MB-231 [7] = assay: Downregulation of PAR mRNA level in human MDA-MB-231 cells with H2O2-induced oxidative stress at 0.5 uM by RT-qPCR analysis; format: functional, cell-based
[8] = target: Proto-oncogene tyrosine-protein kinase ROS (Homo sapiens) (UniProt P08922); assay: Inhibition of ROS1 (unknown origin) at 1 uM relative to control
MDA-MB-231 [9] = assay: Effect on homologous recombination in human MDA-MB-231 cells assessed as reduction in BRCA2-Rad51 complex formation at 0.5 uM incubated for 72 hrs by proximity ligation assay; format: functional, cell-based
MDA-MB-231 [10] = assay: Downregulation of phosphorylated c-MET protein level in human MDA-MB-231 cells with H2O2-induced oxidative stress at 0.5 uM incubated for 72 hrs by Western blot analysis; format: functional, cell-based
[11] = target: ALK tyrosine kinase receptor (Homo sapiens) (UniProt Q9UM73); assay: Inhibition of ALK (unknown origin) at 1 uM relative to control
Chain of ALK tyrosine kinase receptor (Homo sapiens) (Q9UM73 19-1620 limits assumed): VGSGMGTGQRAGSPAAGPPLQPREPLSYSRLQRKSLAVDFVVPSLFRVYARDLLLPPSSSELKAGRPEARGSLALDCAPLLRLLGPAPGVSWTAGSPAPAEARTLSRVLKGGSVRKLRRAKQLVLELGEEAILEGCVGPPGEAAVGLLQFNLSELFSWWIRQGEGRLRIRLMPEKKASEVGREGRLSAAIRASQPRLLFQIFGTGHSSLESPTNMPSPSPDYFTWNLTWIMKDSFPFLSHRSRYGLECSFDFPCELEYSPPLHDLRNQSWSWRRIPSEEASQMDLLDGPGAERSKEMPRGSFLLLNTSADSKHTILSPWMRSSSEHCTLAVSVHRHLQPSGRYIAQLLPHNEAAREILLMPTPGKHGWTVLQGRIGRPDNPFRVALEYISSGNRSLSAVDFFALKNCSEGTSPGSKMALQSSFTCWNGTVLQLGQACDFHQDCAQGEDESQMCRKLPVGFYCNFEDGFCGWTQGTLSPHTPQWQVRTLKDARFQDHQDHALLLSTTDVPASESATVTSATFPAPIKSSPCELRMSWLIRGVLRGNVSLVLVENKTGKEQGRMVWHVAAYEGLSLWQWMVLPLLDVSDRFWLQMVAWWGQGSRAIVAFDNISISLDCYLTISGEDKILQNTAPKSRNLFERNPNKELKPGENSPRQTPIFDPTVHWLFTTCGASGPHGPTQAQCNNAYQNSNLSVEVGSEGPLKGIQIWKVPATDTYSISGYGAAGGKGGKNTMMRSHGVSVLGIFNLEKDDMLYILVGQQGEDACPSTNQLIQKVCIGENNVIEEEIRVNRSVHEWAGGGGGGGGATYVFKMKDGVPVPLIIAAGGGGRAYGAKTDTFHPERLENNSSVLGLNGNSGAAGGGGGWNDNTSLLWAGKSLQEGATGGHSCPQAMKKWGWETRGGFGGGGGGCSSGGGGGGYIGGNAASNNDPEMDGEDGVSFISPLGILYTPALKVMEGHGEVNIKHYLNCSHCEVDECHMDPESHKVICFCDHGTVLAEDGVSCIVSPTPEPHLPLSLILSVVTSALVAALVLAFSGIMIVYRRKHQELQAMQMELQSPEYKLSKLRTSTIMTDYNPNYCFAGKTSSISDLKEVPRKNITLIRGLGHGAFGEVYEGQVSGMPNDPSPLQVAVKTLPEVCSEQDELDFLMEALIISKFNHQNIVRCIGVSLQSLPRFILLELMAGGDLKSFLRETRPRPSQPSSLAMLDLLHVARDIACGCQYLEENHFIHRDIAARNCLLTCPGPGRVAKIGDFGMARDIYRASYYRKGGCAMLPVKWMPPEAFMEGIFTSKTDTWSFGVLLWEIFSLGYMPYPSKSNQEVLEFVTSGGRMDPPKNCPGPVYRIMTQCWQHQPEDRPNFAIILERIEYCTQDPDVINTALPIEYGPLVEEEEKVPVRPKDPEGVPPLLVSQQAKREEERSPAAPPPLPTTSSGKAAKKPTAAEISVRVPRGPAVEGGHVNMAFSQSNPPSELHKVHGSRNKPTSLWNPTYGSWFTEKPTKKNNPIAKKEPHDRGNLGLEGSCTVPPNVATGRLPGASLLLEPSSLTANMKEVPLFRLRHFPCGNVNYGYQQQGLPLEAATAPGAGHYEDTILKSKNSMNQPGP

MDA-MB-231 [12] = assay: Effect on BRCA2 mRNA level in human MDA-MB-231 cells at 0.5 uM by RT-qPCR analysis; format: functional, cell-based
MDA-MB-231 [13] = assay: Antitumor activity against human MDA-MB-231 cells xenografted in female Balb/c nude mouse assessed as induction of DNA damage by measuring increase in gammaH2AX expression in tumor at 50 mg/kg/day, ip qd administered for 28 days by immunohistochemistry analysis; format: functional, organism-based; settings: time 28.0 day
MDA-MB-231 [14] = assay: Induction of DNA damage in human MDA-MB-231 cells assessed as increase in gammaH2AX […] analysis; format: functional, cell-based
MDA-MB-231 [15] = assay: Effect on homologous recombination in human MDA-MB-231 cells assessed as reduction in Rad51 protein level by measuring disruption of BRCA1-BRCA2-Rad51 complex formation at 0.5 uM incubated for 72 hrs by Western blot analysis; format: functional, cell-based
[16] = tested on: Olaparib-resistant HCT116; assay: Antitumor activity against human Olaparib-resistant HCT116 cells xenografted in female Balb/c nude mouse assessed as reduction in tumor weight at 25 to 100 mg/kg/day, ip qd administered for 21 days; format: functional, organism-based; settings: dose 25-100 mg/kg/day, time 21.0 day
MDA-MB-231 [17] = assay: Effect on homologous recombination in human MDA-MB-231 cells assessed as reduction in Rad51 mRNA level by measuring disruption of BRCA1-BRCA2-Rad51 complex formation at 0.5 uM by RT-qPCR analysis; format: functional, cell-based
MDA-MB-231 [18] = assay: Antiproliferative activity against human MDA-MB-231 cells assessed as inhibition of cell growth assessed as reduction in colony formation at 0.5 to 1 uM incubated for 14 days by crystal violet staining based microscopic analysis; format: functional; settings: dose 0.5-1 µM, time 14.0 day
MDA-MB-231 [19] = assay: Effect on PARP1 […] in human MDA-MB-231 cells with H2O2-induced oxidative stress at 0.5 uM by RT-qPCR analysis; format: functional, cell-based
MDA-MB-231 [20] = assay: Downregulation of phosphorylated AKT level in human MDA-MB-231 cells with H2O2-induced oxidative stress at 0.5 uM […]; format: functional, cell-based
MDA-MB-231 [21] = assay: Antitumor activity against human MDA-MB-231 cells xenografted in female Balb/c nude mouse assessed as reduction in Ki67 expression in tumor at 50 mg/kg/day, ip qd administered for 28 days by immunohistochemistry analysis; format: functional, organism-based; settings: time 28.0 day
MDA-MB-231 [22] = assay: Induction of DNA damage in human MDA-MB-231 cells assessed as increase in tail DNA at 0.5 uM incubated for 72 hrs by comet assay; format: functional, cell-based
MDA-MB-231 [23] = assay: Induction of DNA damage in human MDA-MB-231 cells assessed as increase in gammaH2AX protein level at 0.5 uM incubated for 72 hrs by Western blot analysis; format: functional, cell-based
[24] = target: T2, Hepatocyte growth factor receptor; assay: Binding affinity to c-Met in human MDA-MB-231 cells assessed as thermal stabilization at 1 uM at 43 to 55 degreeC incubated for 12 hrs by CETSA; format: cell-based
MDA-MB-231 [25] = assay: Induction of DNA damage in human MDA-MB-231 cells assessed as increase in gammaH2AX expression at 0.5 to 1 uM incubated for 3 days by immunofluorescence based laser confocal microscopic analysis; format: functional, cell-based; settings: dose 0.5-1 µM, time 3.0 day
MDA-MB-231 [26] = assay: Effect on homologous recombination in human MDA-MB-231 cells assessed as reduction in BRCA1 mRNA level by measuring disruption of BRCA1-BRCA2-Rad51 complex formation at 0.5 uM by RT-qPCR analysis; format: functional, cell-based
MDA-MB-231 [27] = assay: Antitumor activity against human MDA-MB-231 cells xenografted in female Balb/c nude mouse assessed as reduction in tumor weight at 12.5 to 50 mg/kg/day, ip qd administered for 28 days; format: functional, organism-based; settings: dose 12.5-50 mg/kg/day, time 28.0 day
[28] = tested on: Olaparib-resistant HCT116; assay: Antitumor activity against human Olaparib-resistant HCT116 cells xenografted in female Balb/c nude mouse assessed as reduction in tumor weight at 5 mg/kg/day, iv qd administered for 21 days; format: functional, organism-based; settings: time 21.0 day
MDA-MB-231 [29] = assay: Inhibition of PARP1/c-Met protein-protein interaction in H2O2 stimulated human MDA-MB-231 cells at 0.5 uM incubated for 72 hrs by proximity ligation assay; format: cell-based
MDA-MB-231 [30] = assay: Effect on BRCA2 protein level in human MDA-MB-231 cells at 0.5 uM incubated for 72 hrs by Western blot analysis; format: functional, cell-based
MDA-MB-231 [31] = assay: Effect on homologous recombination in human MDA-MB-231 cells assessed as reduction in Rad51 nuclear level at 0.5 to 1 uM incubated for 72 hrs by immunofluorescence analysis; format: functional, cell-based; settings: dose 0.5-1 µM
MDA-MB-231 [32] = assay: Antitumor activity against human MDA-MB-231 cells xenografted in female Balb/c nude mouse assessed as reduction in BRCA1 expression in tumor at 50 mg/kg/day, ip qd administered for 28 days by immunohistochemistry analysis; format: functional, organism-based; settings: time 28.0 day
[33] = target: T2, Hepatocyte growth factor receptor; assay: Inhibition of c-Met (unknown origin) at 1 uM relative to control
MDA-MB-231 [34] = assay: Effect on c-MET […] in human MDA-MB-231 cells with H2O2-induced oxidative stress at 0.5 uM by RT-qPCR analysis; format: functional, cell-based
[35] = target: T1, Poly [ADP-ribose] polymerase 1; assay: Binding affinity to PARP1 in human MDA-MB-231 cells assessed as thermal stabilization at 1 uM at 43 to 55 degreeC incubated for 12 hrs by CETSA; format: cell-based
MDA-MB-231 [36] = assay: Downregulation of phosphorylated c-MET mRNA level in human MDA-MB-231 cells with H2O2-induced oxidative stress at 0.5 uM by RT-qPCR analysis; format: functional, cell-based
MDA-MB-231 [37] = assay: Downregulation of PAR protein level in human MDA-MB-231 cells with H2O2-induced oxidative stress at 0.5 uM incubated for 72 hrs by Western blot analysis; format: functional, cell-based
MDA-MB-231 [38] = assay: Downregulation of phosphorylated AKT level in human MDA-MB-231 cells with H2O2-induced oxidative stress at 0.5 uM incubated for 72 hrs by Western blot analysis; format: functional, cell-based
MDA-MB-231 [39] = assay: Effect on c-MET protein expression in human MDA-MB-231 cells with H2O2-induced oxidative stress at 0.5 uM incubated for 72 hrs by Western blot analysis; format: functional, cell-based
MDA-MB-231 [40] = assay: Effect on PARP1 protein expression in human MDA-MB-231 cells with H2O2-induced oxidative stress at 0.5 uM incubated for 72 hrs by Western blot analysis; format: functional, cell-based
MDA-MB-231 [41] = assay: Induction of G2/M phase cell cycle arrest in human MDA-MB-231 cells at 0.5 to 1 uM incubated for 4 days by PI staining based flow cytometry analysis; format: functional; settings: dose 0.5-1 µM, time 4.0 day

pIC50 (MDA-MB-231 [1]): 5.99
pIC50 [2]: 8.43
pIC50 [3]: 7.74
SMILES: Cn1cc(-c2ccc(=O)n(CCOc3ccnc4cc(OCCN5CCN(C(=O)c6cc(Cc7n[nH]c(=O)c8ccccc78)ccc6F)CC5)ccc34)n2)cn1

inhibition [4]: < 50%
pIC50 [2]: 8.68
SMILES: Cn1cc(-c2ccc(=O)n(CCOc3ccnc4cc(OC5CCN(C(=O)c6cc(Cc7n[nH]c(=O)c8ccccc78)ccc6F)CC5)ccc34)n2)cn1

inhibition [4]: < 50%
pIC50 [2]: 9.05
SMILES: O=C(c1cc(Cc2n[nH]c(=O)c3ccccc23)ccc1F)N1CCN(c2ccc3c(OCCn4ncccc4=O)ccnc3c2)CC1

pIC50 [2]: 7.38
pIC50 [3]: 7.19
SMILES: Cn1cc(-c2ccc(=O)n(CCOc3ccnc4cc(N5CCC(NC(=O)c6cc(Cc7n[nH]c(=O)c8ccccc78)ccc6F)CC5)ccc34)n2)cn1

SMILES: O=C(c1cc(Cc2n[nH]c(=O)c3ccccc23)ccc1F)N1CCN(c2ccc3c(OCCn4nc(-c5cccnc5)ccc4=O)ccnc3c2)CC1
Activity (MDA-MB-231 [5]): Active
Activity (MDA-MB-231 [6]): Active
Activity (MDA-MB-231 [7]): Active
inhibition [8]: 63%
Activity (MDA-MB-231 [9]): Active
Activity (MDA-MB-231 [10]): Active
inhibition [11]: 60.3%
Activity (MDA-MB-231 [12]): inactive
Activity (MDA-MB-231 [13]): Active
Activity (MDA-MB-231 [14]): Active
Activity (MDA-MB-231 [15]): Active
Activity [16]: Active
Activity (MDA-MB-231 [17]): Active
Activity (MDA-MB-231 [18]): Active
Activity (MDA-MB-231 [19]): inactive
Activity (MDA-MB-231 [20]): Active
Activity (MDA-MB-231 [21]): Active
Activity (MDA-MB-231 [22]): Active
Activity (MDA-MB-231 [23]): Active
Activity [24]: Active
Activity (MDA-MB-231 [25]): Active
Activity (MDA-MB-231 [26]): Active
Activity (MDA-MB-231 [27]): Active
Activity [28]: Active
inhibition (MDA-MB-231 [29]): Active
Activity (MDA-MB-231 [30]): inactive
Activity (MDA-MB-231 [31]): Active
Activity (MDA-MB-231 [32]): Active
inhibition [33]: 98.3%
Activity (MDA-MB-231 [34]): inactive
Activity [35]: Active
Activity (MDA-MB-231 [36]): Active
Activity (MDA-MB-231 [37]): Active
Activity (MDA-MB-231 [38]): Active
Activity (MDA-MB-231 [39]): inactive
Activity (MDA-MB-231 [40]): inactive
Activity (MDA-MB-231 [41]): Active

pIC50 (MDA-MB-231 [1]): 6.64
pIC50 [2]: 9.92
pIC50 [3]: 7.52
SMILES: Cn1cc(-c2ccc(=O)n(CCOc3ccnc4cc(N5CCN(C(=O)c6cc(Cc7n[nH]c(=O)c8ccccc78)ccc6F)CC5)ccc34)n2)cn1

pIC50 [2]: 8.15
pIC50 [3]: 7.29
SMILES: O=C(c1cc(Cc2n[nH]c(=O)c3ccccc23)ccc1F)N1CCN(c2ccc3c(OCCn4nc(N5CCOCC5)ccc4=O)ccnc3c2)CC1

pIC50 (MDA-MB-231 [1]): 5.26
pIC50 [2]: 8.96
pIC50 [3]: 7.54
SMILES: CC1CN(c2ccc3c(OCCn4nc(-c5cnn(C)c5)ccc4=O)ccnc3c2)CCN1C(=O)c1cc(Cc2n[nH]c(=O)c3ccccc23)ccc1F (racemic)
